Test results published in patent US20210361638A1, “FXR AGONISTS FOR THE TREATMENT OF LIVER DISEASES” (NOVARTIS AG, priority 2017, published 2021).
Entries after “also recorded” stand apart in the source; their conditions may differ.

Assays:
NASH subjects = settings: FLINT trial; placebo-treated patients 6%; cited from earlier work
FGR5 = FGR5 effects (specificity)
[1] = tested on: ANIT-induced cholestatic rats; experiment: ANIT-induced cholestasis rat model; assay type: in vivo, Sprague-Dawley (SD) rats
Procedure: Experimental protocols were approved by the local Animal Care and Use Committee and were in compliance with Animal Welfare Act regulations and US regulation (Guide for the Care and Use of Laboratory Animals). […] . The tropifexor-treated rats were sacrificed at 1 and 7 h (n=3/time point) and OCA-treated rats were sacrificed at 1, 3, and 7 h (n=3/time point) after the final dose on day 14 for analysis of target gene expression and serum biomarkers. […] .

NASH mice = experiment: Diet-induced (AMLN diet) insulin-resistant NASH mouse model; assay type: in vivo, C57B16 mice
Description: A separate model for diet-induced NASH was developed as described by Trevaskis et al. Male C57B16 mice aged […] were maintained on a high fat (40% kcal; Primex), high fructose (22% by weight), and high cholesterol (2% by weight) diet (Research Diets Inc., New Brunswick, N.J. cat. no. D09100301) for 26 weeks to induce NASH. Control animals received low-fat diet (10% kcal) with no fructose or cholesterol (Research Diets, cat. no. D09100304). […] . Expression of collagen, type I, alpha 1 (Col1a1) and tissue inhibitor of metalloproteinase 1 (Timp1) genes was analyzed by real time quantitative PCR.

[2] = Exposure and exploratory exposure-response analysis in NASH patients; assay type: in vivo, human
FGF19 = experiment: Pharmacodynamic marker FGF19 with increasing doses; assay type: in vivo; settings: increasing doses up to 3000 μg
STAM mice = experiment: STAM mouse model of NASH; settings: for NAFLD activity score (NAS): doses 0.1 and 0.3 mg/kg, qd orally weeks 9-12; for Sirius Red-positive areas (pericellular fibrosis): tropifexor 0.03, 0.1, 0.3 mg/kg; for liver triglycerides: tropifexor qd orally weeks 9-12
Procedure: Further experiments in the STAM model were performed: 2-day old male C57Bl/6J mice were injected with streptozotocin and placed on a high-fat diet (HFD) from weeks 4-12 (HFD-32; CLEA-Japan, Tokyo, Japan). […] Hematoxylin & eosin (H&E)-stained sections were evaluated for nonalcoholic fatty liver disease (NAFLD) activity score (NAS) according to previously defined criteria.
Liver sections were fixed in 4% paraformaldehyde for 48 h and shipped for histopathological analysis.

dogs = experiment: Oral gavage toxicity studies in dogs for up to 39 weeks

## CC[C@H]1[C@@H](O)[C@@H]2[C@H](CC[C@]3(C)[C@@H]([C@H](C)CCC(=O)O)CC[C@@H]23)[C@@]2(C)CC[C@@H](O)C[C@@H]12 [OCA, 6α-ethyl-chenodeoxycholic acid]
NASH subjects
  patients with pruritus: 23%

## O=C(O)c1cc(F)c2nc(N3C4CC[C@H]3C[C@H](OCc3c(-c5ccccc5OC(F)(F)F)noc3C3CC3)C4)sc2c1 [tropifexor, 2-[(1R,3r,5S)-3-({5-cyclopropyl-3-[2-(trifluoromethoxy)phenyl]-1,2-oxazol-4-yl}methoxy)-8-azabicyclo[3.2.1]octan-8-yl]-4-fluoro-1,3-benzothiazole-6-carboxylic acid]
FGR5
  FGR5 effects: no FGR5 effects
[1]; FIG. 1D, vs vehicle-treated ANIT livers
  quantitation of collagen deposition (fibrosis): significantly decreased
[1]; FIG. 1 legend
  serum biochemistry parameters, liver damage, and fibrosis: improves
[1]; chronic ANIT treatment, FIG. 1C
  collagen deposition and liver fibrosis: highly reduced
[1]; doses as low as 0.3 mg/kg, oral qd 5 days, vs vehicle-treated ANIT rats
  AST, ALT, total BAs, total bilirubin, and GGT levels: marked reduction
[1]; rat, in vivo
  reduction of cholestatic disease markers, comparison with OCA: more effective than OCA
[1]; vs vehicle-treated cholestatic rats, 0.03, 0.3, 1 mg/kg
  liver histology: necrosis of the bile duct epithelium, bile duct hyperplasia, inflammatory cell infiltrates: dose-dependent improvement
NASH mice; mid- and high dose tropifexor
  hepatic crown-like structures: completely eliminated
NASH mice; mid-dose level
  ALT and AST levels: normalized
NASH mice; mouse, in vivo
  collagen deposition in liver (fibrosis), Trichrome staining: strongly abrogates; also recorded: reverses
  steatosis by quantification of liver triglycerides: Dose-dependent reduction
NASH mice; real time quantitative PCR
  mRNA levels of fibrogenic markers Col1a1 and TIMP1: dramatically reduced
NASH mice; relative to vehicle-treated controls, 4 weeks qd orally
  ALT and AST: dose-dependent reduction
NASH mice; therapeutic mode
  liver inflammation, steatosis, and fibrosis: resolved
[2]; 200 μg daily
  predicted exposure in NASH patients: approximately 80 ng·hr/ml
[2]; at 200 μg
  exposure level in NASH patients: 80 ng·h/mL
FGF19
  pharmacodynamic marker FGF19: continues to rise
STAM mice; FIG. 2 legend
  Plasma cholesterol levels: significantly reduced
STAM mice
  NAFLD activity score (NAS): significantly reduced
  Sirius Red-positive areas (pericellular fibrosis): significantly reduced
  liver triglycerides: significantly reduced
STAM mice; listed as LJN452
  NAFLD activity score (NAS): significant decrease
  liver triglycerides: reduction
STAM mice; mouse, in vivo
  fibrosis area in comparison with baseline group: decreased
  resolution of the NASH phenotype, comparison with OCA: more effectively than OCA
STAM mice; listed as Tropifexor
  Sirius Red-positive areas (pericellular fibrosis): statistically significant dose-dependent reduction
dogs; females
  Mean AUC0-24 h at which hepatocellular hypertrophy was adverse: 507 ng·h/mL
dogs; males
  Mean AUC0-24 h at which hepatocellular hypertrophy was adverse: 898 ng·h/mL
